The test system of assay [1] is Pseudomonas aeruginosa ATCC 27853. As to the kind of experiment: In vitro bactericidal assay, P. aeruginosa ATCC 27853 (FIGS. 12-14). In kind it is cell-based. Conditions: FIG. 14; pH 5.5; 180 minutes; even at the lower concentration (75 μg/ml). The method, then: Each of the test peptides was used at 25, 12.5 6.25, and 3.12 μM. The gentamicin was used at 4 μg/ml. 1×10^6/ml Pseudomonas aeruginosa ATCC® 27853™ (American Type Culture Collection, Manassas, Va.) were incubated with the peptides, negative buffer control (tryptone saline), and positive control gentamicin for 180 minutes at pH 7.2. 50 μl aliquots were plated out on agar plates and incubated overnight. Colony forming units were counted after overnight incubation and CFU/ml calculated.
Each of the test peptides was used at 25, 12.5, 6.25, and 3.12 μM. The gentamicin was used at 4 μg/ml. 1×10^6/ml Pseudomonas aeruginosa ATCC® 27853™ (American Type Culture Collection, Manassas, Va.) were incubated with the peptides, negative buffer control (tryptone saline), and positive control gentamicin for 180 minutes at pH 5.5. 50 μl aliquots were plated out on agar plates and incubated overnight. Colony forming units were counted after overnight incubation and CFU/ml calculated.
FIG. 14 is a comparison of bactericidal activity of CAP37 peptides 120-146WR (SEQ ID NO:30), 120-146WH (SEQ ID NO:31), 120-146QR (SEQ ID NO:28), 120-146QH (SEQ ID NO:29), 120-146QR-5RMP (SEQ ID NO:32), and 120-146QH-5RMP (SEQ ID NO:33) for Pseudomonas aeruginosa ATCC® 27853™ (American Type Culture Collection, Manassas, Va.). 1×10^6/ml Pseudomonas aeruginosa ATCC® 27853™ were incubated with the peptides at 150, 75, and 37.5 μg/ml and negative buffer control (tryptone saline) for 180 minutes at pH 5.5. 50 μl aliquots were plated out on agar plates and incubated overnight. Colony forming units were counted after overnight incubation and CFU/ml calculated.
For FIGS. 10-13, in vitro bactericidal assays were performed using a starting inoculum of 1×10^6 CFU/ml of the bacterial suspension. The CFU remaining at the end of the 60-180 minute incubation was determined, and the data was plotted as log reduction in CFU/ml.
In particular, each of the test peptides (CAP37 peptides 120-146WR, 120-146WH, and 95-122 (SEQ ID NOS:30, 31, and 26, respectively)) was used at 25, 12.5, 6.25, and 3.12 μM. Gentamicin was used at 4 μg/ml. 1×10^6/ml Acinetobacter baumannii ATCC® BAA-747™ or Pseudomonas aeruginosa ATCC® 27853™ (American Type Culture Collection, Manassas, Va.) were incubated with the peptides, negative buffer control (tryptone saline), and positive control gentamicin at pH 5.5 or 7.2. A 60 minute incubation was used for Acinetobacter baumannii ATCC® BAA-747™, while a 180 minute incubation was used for Pseudomonas aeruginosa ATCC® 27853™. 50 μl aliquots were plated out on agar plates and incubated overnight. Colony forming units were counted after overnight incubation and CFU/ml calculated.
For FIG. 14, 1×10^6/ml Pseudomonas aeruginosa ATCC® 27853™ were incubated with each of the test peptides (CAP37 peptides 120-146WR, 120-146WH, 120-146QR, 120-146QH, 120-146QR-5RMP, and 120-146QH-5RMP (SEQ ID NOS:30, 31, 28, 29, 32, and 33, respectively)) at 150, 75, and 37.5 μg/ml, or negative buffer control (tryptone saline), for 180 minutes at pH 5.5. 50 μl aliquots were plated out on agar plates and incubated overnight. Colony forming units were counted after overnight incubation and CFU/ml calculated.

For assay [2], the system named is P. aeruginosa (ATCC 27853). As to the kind of experiment: Mouse model of Pseudomonas (bacterial) keratitis. In kind it is in vivo. The method, then: A circular wound was created on the mouse cornea by removing the epithelium and infected with 10^5 colony forming units (CFU) of P. aeruginosa (ATCC® 27853™ (American Type Culture Collection, Manassas, Va.)). Infected wounds were treated with saline (0.9% sodium chloride, vehicle control) or saline containing indicated concentrations of peptide every 15 minutes for 2 hours, then every 30 minutes for 3 hours on the first day. Infected wounds were treated twice on the second day and once on the third day. Mice were killed at 48 hours post-infection, and CFU/eye were quantified. The means were plotted and are representative of 5 to 9 mice per group. Mann Whitney test was performed for each group as compared to the saline control group. *P=0.014. In compound names such as BCC02-5RMP used herein, “R” represents arginine, and “MP” represents a small PEG molecule as defined elsewhere herein (such as, for example but not by way of limitation, “AEEP”).
(§1) A circular wound was created on the mouse cornea by removing the epithelium, and the wound was infected with 10^5 CFU of P. aeruginosa (ATCC® 27853™ (American Type Culture Collection, Manassas, Va.)). Infected wounds were treated with saline or saline containing indicated concentrations (2, 5, 10, and 20 mg/ml) of peptide every 30 minutes for 6 hours on the first day. Infected wounds were treated twice on the second day and once on the third day. Mice were killed at 48 hours post-infection, and the CFU/eye were quantified. The means are plotted and are representative of 5 mice per group. Mann Whitney test was performed for each group as compared to the saline control group. *P=0.015 and **P=0.097.
as §1, with “representative of 4 to 5 mice” for “representative of 5 mice”, “control group.” for “control group. *P=0.015 and **P=0.097.”
as §1, with “group. **P=0.0079 by” for “group.”, “test” for “test was performed for each group”, “group.” for “group. *P=0.015 and **P=0.097.”
A circular wound (2 mm) was created on the mouse cornea by removing the epithelium and infecting the wound with 10^5 CFU of P. aeruginosa (ATCC® 27853™ (American Type Culture Collection, Manassas, Va.)). Infected wounds were treated with saline or saline containing indicated concentrations of peptide every 15 minutes for 2 hours, then every 30 minutes for 3 hours on the first day. […] Mice were killed at 48 hours post-infection, and the colony forming units per eye (CFU/eye) were quantified. […]

Assay [3] relates to Pseudomonas clinical isolate B64. The assay can be described thus: BIOSCREEN C growth assay, peptide plus antibiotic combinations. In kind it is cell-based, Pseudomonas aeruginosa. Conditions: for MIC: Pseudomonas. As to the method: FIGS. 28A and 28B show the effect of BCC002-5R-MP (SEQ ID NO:21) in combination with Cefotaxime on MIC using Pseudomonas clinical isolate B64. Cefotaxime (Cefo) and peptide combinations included a constant amount of Cefotaxime (2.81 μg/ml) with suboptimal amounts of peptide (0, 0.34, 1.01, and 3.04 μg/ml). […] FIG. 28B is a histogram showing Fractional area (FA), which is an indication of the MIC.
FIG. 29B is a histogram showing Fractional area (FA), which is an indication of the MIC.
FIGS. 30A and 30B show the effect of BCC02-5R-MP (SEQ ID NO:21) in combination with Levofloxacin (Levo) and peptide combinations included a constant amount of Levofloxacin (3.6 μg/ml) with suboptimal amounts of peptide (0, 0.34, 1.01, 3.04 μg/ml). […] FIG. 30B is a histogram showing Fractional area (FA), which is an indication of the MIC.
The peptide and antibiotics were set up in the wells of the microtiter plate at starting ratios of MIC equivalents of antibiotic:peptide at 3:1, 1:1, and 1:3. They were serially diluted to concentrations well below suboptimal/sublethal levels of the antibiotic and peptide. The organism was added (1×10^5 CFU/well), the BIOSCREEN C™ assay (Growth Systems USA, Piscataway, N.J.) was performed, and data was collected over 24 hours.

Setting [4] is: antibiotic alone, 1×10^5 CFU/well, 24 hours, read-out: MIC.

Like-named read-outs stand apart in the source and are kept apart here. Square brackets hold non-standard residues; d marks the D form. Ends that are not written are not given here. PEG2 = NCCOCCOCCC(=O)O

On to “(AEEP)-(AEEP)-RRRRGTRCQVAGWGSQRSGGRLSRFPRFVNVR ([PEG2][PEG2]RRRRGTRCQVAGWGSQRSGGRLSRFPRFVNVR) [120-146QR-5RMP]”, for which, in assay [1], the “reduction in CFU” value is about 6 log. For the same compound, the “mice with no viable bacteria in the eye after treatment” value in assay [2] (the 10 and 20 mg/ml groups together) is reported as “Six of the 10 mice”. Moreover, in assay [2] (topical doses of 10 and 20 mg/ml, 48 hours post-infection), the “CFU/eye vs saline, in words” value is “significantly reduced the CFU/eye”.

As for `C[C@H]1COc2c(N3CCN(C)CC3)c(F)cc3c(=O)c(C(=O)O)cn1c23` [Levofloxacin], the minimum inhibitory concentration (MIC) in assay [3] (setting [4]) amounted to 15 µg/mL; in assay [3] (in the presence of 3.04 μg/ml of peptide BCC02-5RMP, read-out: MIC of Levofloxacin with peptide) it was 3.5 µg/mL.

Take `CO/N=C(\C(=O)N[C@@H]1C(=O)N2C(C(=O)O)=C(COC(C)=O)CS[C@H]12)c1csc(N)n1` [Cefotaxime]: the “bactericidal impact on growth curve, in words” value in assay [3] (Cefotaxime alone at 2.8 μg/ml) is “very little bactericidal impact”. Further, the minimal inhibitory concentration (MIC) in assay [3] (setting [4]) turned out to be 15 µg/mL.

The values above are taken from patent publication US11884710B2, “Peptide compounds and methods of use in wound healing” (priority 2013, dated 2024).
